We go through one molecule from paper PMC10223470 (Molecules, 2023).

The subject of data set [1] is mice. Description: Motor coordination, chimney test. In kind it is in vivo. The conditions noted are these: 25, 50 and 75 mg/kg i.p., 60 min before testing. As for the experimental part: (§1) The experiments were carried out on 6 weeks old naive Swiss male mice (Experimental Medicine Center (OMD), Lublin, Poland), weighing 28–30 g. The cages with mice were located in air-conditioned rooms maintaining the ambient temperature within the range of 23–25 °C. The animals were provided with a natural 12 h day/night cycle, replicating the day and night mode. Each testing group was represented by 8–10 animals, depending on the research schedule. All experiments were conducted according to the National Institute of Health Guidelines for the Care and Use of Laboratory Animals (8th edition) and to the European Community Council Directive for the Care and Use of Laboratory Animals of 22 September 2010 (2010/63/EU) and were approved by the Local Ethical Committee (number of ethical approval: 147/2018). Compound 17 (25, 50, 75 mg/kg) was suspended in 1% Tween 80 in saline solution and was administered intraperitoneally (i.p.) 60 min before the test. […] Imipramine hydrochloride (30 mg/kg, Sigma-Aldrich was administered intraperitoneally (i.p.) 60 min before the test. […] Sigma-Aldrich, USA) was given subcutaneously (s.c.). Prior to administration, the agent was dissolved in saline and injected 30 min before the test. […] Motor coordination has been assessed in mice using the chimney test and the rotarod test, according to the procedure we had used before. […]

Data set [2] relates to mice. Description: Motor coordination, rotarod test. In kind it is in vivo. The conditions noted are these: 25, 50 and 75 mg/kg i.p., 60 min before testing. On the procedure: as §1
For orientation: Falling from the rotarod earlier than controls is read as motor impairment.

Regarding `O=C(CCN1C(=O)CSc2ccccc21)Nc1ccc(Cl)cc1` [Compound 17, N-(4-Chlorophenyl)-3-(3-oxo-2,3-dihydro-4H-benzo[b][1,4]thiazin-4-yl)propanamide], in data set [1], the “effect on behavior in the chimney test” value is on record as “did not change the behavior” and the “time to leave the chimney” value is not above 30 s. In data set [2], the “effect on behavior in the rotarod test” value was “did not influence mice behavior”.
